From patent US20240166610A1, “SUBSTITUTED PYRIDAZINE PHENOL DERIVATIVES” (MEDSHINE DISCOVERY INC., priority 2021, published 2024) come the findings set out here.

The IC50 is the concentration needed to halve the response being measured. Lower therefore signals inhibition by little substance.

Where a name gives a salt, the structure may show the parent alone.

In series [1] the target is T1, NLRP3 (Homo sapiens, UniProt Q96P20).
T1 construct: This experiment utilized the human-derived monocyte cell line THP1; endogenous in cells; host or cells: THP-1 (human monocyte line, PMA-differentiated into macrophages)
In words: Detecting IC50 of NLRP3 inhibitor by using THP-1 cells (IL-1β secretion, CBA). Type of series: cell-based. Conditions: PMA/LPS/ATP, IL-1β in supernatant. From the text: 1. Experimental principle: This experiment utilized the human-derived monocyte cell line THP1 to investigate the inhibitory activity (IC50) of NLRP3 inhibitor on cellular IL-1β secretion. PMA (12-O-tetradecanoylphorbol-13-acetate) was used to differentiate the monocyte cell line THP1 into mature macrophages, which were then stimulated using LPS (lipopolysaccharide), an agonist of the Toll-like receptor TLR4, to activate the transcriptional activity of the inflammasome NLRP3 and the expression of pro-IL-1β, a precursor of IL-1β. At this time, the inhibitor of NLRP3 was added, and then ATP (adenosine triphosphate) was added to further mature and activate NLRP3, and activate downstream caspase-1. Activated caspase-1 may enzymatically process pro-IL-1β into mature IL-1β that can be secreted.
(1) The density of THP1 cells was adjusted to 5×10^5 cells/mL, then PMA was added, and the final concentration was adjusted to 100 ng/mL. The cells were inoculated 200 μL/well into a 96-well flat-bottom plate, stimulated overnight (<16 hours if possible) at 37° C. and 5% CO2.
(2) The supernatant was discarded the next day, and then the cells were carefully washed twice with Dulbecco's phosphate-buffered saline (200 μL/time).
(3) The cells were stimulated with LPS at a final concentration of 100 ng/mL, added to a 96-well plate (200 μL/well), and cultured at 37° C. and 5% CO2 for 3 hours.
The cells were incubated for 1 hour in a 37° C., 5% CO2 incubator.
(5) ATP was added to each well with a final concentration of 5 mM, and cultured overnight (>18 hours) at 37° C. and 5% CO2.
(6) On the third day, 5 μL of the supernatant was taken, diluted 10-fold, and the content of IL-1β in the supernatant was detected by cytometric bead array (CBA).

Series [2] in a line: In vivo pharmacokinetic evaluation in CD-1 mice. Conditions: male, mouse, plasma, dose IV/PO 1/2 mg/kg; for half-life / clearance / Vd: 1 mg/kg; for half-life: IV, read-out: Half-life T1/2 (IV) (converted); for clearance: read-out: Clearance rate CL; for Vd: read-out: Tissue distribution Vdss; for AUC(0-t): PO, read-out: Area under drug-time curve AUC0-last PO; for bioavailability: read-out: Bioavailability F; for Cmax: read-out: Peak concentration Cmax. The protocol: Experimental Example 2: In Vivo Pharmacokinetic Evaluation of Compounds in CD-1 Mice
Experimental purpose: To test the in vivo pharmacokinetics of the compounds in CD-1 mice
CD-1 mice (male, 7 to 9 weeks old)
The rodent pharmacokinetic characteristics after intravenous injection and oral administration of the compounds were tested using a standard protocol. The candidate compound was prepared as a clear solution during the experiment and given to mice for single intravenous injection and oral administration. The vehicle for intravenous injection and oral administration was a mixed vehicle composed of 5% dimethyl sulfoxide and 95% 5% solutol. Four male CD-1 mice were used in this project. Two mice were administered intravenously (IV), and plasma samples were collected at 0 hours (before administration) and 0.0833, 0.25, 0.5, 1, 2, 4, 8, and 24 hours after administration. The other two mice were administered orally by gavage (PO), and plasma samples were collected at 0 hours (before administration) and 0.25, 0.5, 1, 2, 4, 8, and 24 hours after administration. The plasma concentration was quantitatively analyzed by LC-MS/MS analysis method, and the pharmacokinetic parameters were calculated, such as peak concentration (Cmax), clearance rate (CL), half-life (T1/2), […] (Vdss), area under drug-time curve (AUC0-last), bioavailability (F).

Series [3] in a line: In vivo pharmacokinetic evaluation in SD rats. Conditions: male, rat, plasma, dose IV/PO 1/2 mg/kg; for half-life / clearance / Vd: 1 mg/kg; for half-life: IV, read-out: Half-life T1/2 (IV) (converted); for clearance: read-out: Clearance rate CL; for Vd: read-out: Tissue distribution Vdss; for AUC(0-t): PO, read-out: Area under drug-time curve AUC0-last PO; for bioavailability: read-out: Bioavailability F; for Cmax: read-out: Peak concentration Cmax. As to the method: Experimental Example 3: In Vivo Pharmacokinetic Evaluation of Compounds in SD Rats
Experimental Purpose: To Test the In Vivo Pharmacokinetics of the Compounds in SD Rats
The rodent pharmacokinetic characteristics after intravenous injection and oral administration of the compounds were tested using a standard protocol. The candidate compound was prepared as a clear solution during the experiment and given to SD rats for single intravenous injection and oral administration. The vehicle for intravenous injection and oral administration was a mixed vehicle composed of 5% dimethyl sulfoxide and 95% 5% solutol. Four male SD rats were used in this project. Two SD rats were administered intravenously, and plasma samples were collected at 0.083, 0.25, 0.5, 1, 2, 4, 8, and 24 hours after administration. The other two SD rats were administered orally by gavage, and plasma samples were collected at 0.25, 0.5, 1, 2, 4, 8, and 24 hours after administration. The plasma concentration was quantitatively analyzed by LC-MS/MS analysis method, and the pharmacokinetic parameters were calculated, such as peak concentration (Cmaz), clearance rate (CL), half-life (T1/2), […] (Vdss), area under drug-time curve (AUC0-last), bioavailability (F).

T1 sequence (Q96P20 whole entry): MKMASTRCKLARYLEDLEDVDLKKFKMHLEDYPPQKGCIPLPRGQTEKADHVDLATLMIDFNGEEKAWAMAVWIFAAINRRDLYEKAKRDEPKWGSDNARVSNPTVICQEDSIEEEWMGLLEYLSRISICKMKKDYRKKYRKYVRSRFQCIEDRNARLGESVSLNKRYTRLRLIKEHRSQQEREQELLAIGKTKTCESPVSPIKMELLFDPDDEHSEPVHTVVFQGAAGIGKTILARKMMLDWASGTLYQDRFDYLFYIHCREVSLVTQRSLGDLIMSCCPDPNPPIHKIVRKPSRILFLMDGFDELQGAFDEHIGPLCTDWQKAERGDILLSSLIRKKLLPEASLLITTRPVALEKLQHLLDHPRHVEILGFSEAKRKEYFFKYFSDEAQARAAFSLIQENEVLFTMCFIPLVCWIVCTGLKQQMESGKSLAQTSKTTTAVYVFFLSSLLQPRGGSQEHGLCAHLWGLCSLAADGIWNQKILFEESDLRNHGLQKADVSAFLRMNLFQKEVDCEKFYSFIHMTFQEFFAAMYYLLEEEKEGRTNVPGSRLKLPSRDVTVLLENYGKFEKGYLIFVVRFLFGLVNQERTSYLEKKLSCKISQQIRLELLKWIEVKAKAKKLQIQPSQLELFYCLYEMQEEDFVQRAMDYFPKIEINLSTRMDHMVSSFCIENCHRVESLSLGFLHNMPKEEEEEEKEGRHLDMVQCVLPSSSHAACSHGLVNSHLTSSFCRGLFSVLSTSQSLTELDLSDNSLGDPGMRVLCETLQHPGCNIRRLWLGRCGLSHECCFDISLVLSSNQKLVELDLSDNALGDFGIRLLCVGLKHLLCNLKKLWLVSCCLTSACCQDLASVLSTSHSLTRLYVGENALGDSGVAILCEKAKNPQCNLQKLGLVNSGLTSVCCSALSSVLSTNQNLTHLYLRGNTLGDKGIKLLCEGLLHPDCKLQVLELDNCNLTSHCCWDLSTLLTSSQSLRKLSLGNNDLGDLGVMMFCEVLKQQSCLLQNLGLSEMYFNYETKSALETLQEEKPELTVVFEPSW

For the compound `Cc1cc2c(O)c(-c3nnc(N[C@@H]4CCCN(C)C4)cc3C)ccc2s1` [Hydrochloride of compound 43], the IC50 in series [1] is 1.76 nM.

In series [1], `Cc1cc(N[C@@H]2CCCN(C3COC3)C2)nnc1-c1ccc(C2CCC2)cc1O` [Compound 25] displayed an IC50 of 31.1 nM. In series [1], `Cc1cc2c(O)c(-c3nnc(NCCN(C)C)cc3C)ccc2s1` [Hydrochloride of compound 58] had an IC50 of 0.85 nM. On the same count and under the same terms, under `Cc1cc(N[C@@H]2CCCN(C3COC3)C2)nnc1-c1ccc(C2CCCC2)cc1O` [Compound 27a] stands 41.5 nM; under `Cc1cc2c(O)c(-c3nnc(N[C@@H]4CCCC[C@H]4O)cc3C)ccc2s1` [Hydrochloride of compound 67], 16.6 nM.

Take `Cc1cc(N[C@@H]2CCCN(C)C2)nnc1-c1ccc(-c2ccc(F)cc2)cc1O` [Compound 4]: in series [2], the half-life is 25.7 h, the clearance was found to be 0.795 mL/min/kg, the Vd turned out to be 1.72 L/kg and the AUC(0-t) turned out to be 54.3 µM·h. Besides, in series [2], the bioavailability is 102% and the Cmax worked out at 2900 nM. In the case of `Cc1cc(N[C@@H]2CCCN(C3COC3)C2)nnc1-c1ccc(C2=CCCC2)cc1O` [Compound 27b], in series [1], the IC50 worked out at 25.5 nM. The same measure, in the same setting: the result for `Cc1cc(N[C@@H]2CCCN(C3CCC3)C2)nnc1-c1ccc2c(c1O)CCC2` [Hydrochloride of compound 19] reads 0.76 nM; that for `Cc1cc(N[C@@H]2CCCN(C(=O)C3CC3)C2)nnc1-c1ccc2sccc2c1O` [Compound 41], 6.87 nM; that for `Cc1cc(N[C@H]2CCCC[C@@H]2O)nnc1-c1ccc2sccc2c1O` [Hydrochloride of compound 64], 21.1 nM. On the same count and under the same terms, under `Cc1c(N[C@@H]2CCCN(C)C2)nnc(-c2ccc3sccc3c2O)c1C` [Hydrochloride of compound 72] stands 0.318 nM. In turn, `Cc1cc(N[C@@H]2CCCN(CC(C)(C)O)C2)nnc1-c1ccc2sccc2c1O` [Formate of compound 47] gave a 50% inhibitory concentration (IC50) in series [1] of 0.69 nM. Take `Cc1c(N[C@@H]2CCCC[C@H]2O)nnc(-c2ccc3sccc3c2O)c1C` [Hydrochloride of compound 73]: the IC50 in series [1] came out at 3.21 nM. Compared with the last compound, the IC50 is about 4.7-fold higher. On the same count and under the same terms, under `CN1CCC[C@@H](Nc2ccc(-c3ccc4sccc4c3O)nn2)C1` [Hydrochloride of compound 74] stands 19.4 nM. `Cc1cc(N[C@@H]2CCCN(C3CCOC3)C2)nnc1-c1ccc2sccc2c1O` (stereo partly shown) [Formate of compound 42]: in series [3], the half-life is 1.72 h, the clearance was 6.08 mL/min/kg, the Vd came out at 0.837 L/kg and the AUC(0-t) was 9.15 µM·h. Besides, in series [3], the bioavailability came out at 71.2% and the Cmax stood at 2100 nM. The IC50 in series [1] turned out to be 0.274 nM. For the compound `Cc1cc(N[C@@H]2CCCN(C3COC3)C2)nnc1-c1ccc2sccc2c1O` [Compound 26], in series [2], the half-life is 1.75 h, the clearance was found to be 16.6 mL/min/kg, the Vd came out at 1.71 L/kg and the AUC(0-t) was 3.9 µM·h. For the same compound, in series [2], the bioavailability was determined as 78.8% and the Cmax was determined as 2070 nM. Besides, in series [3], the half-life was 1.1 h, the clearance was found to be 12.3 mL/min/kg, the Vd was found to be 0.789 L/kg and the AUC(0-t) came out at 7.4 µM·h. Besides, in series [3], the bioavailability worked out at 108% and the Cmax amounted to 2910 nM. In series [1], this compound returned a concentration for half-maximal inhibition (IC50) of 0.52 nM.

`Cc1cc(N[C@@H]2CCCN(C)C2)nnc1-c1ccc2sc(F)c(F)c2c1O` [Hydrochloride of compound 44b]: 4.19 nM corresponded to half-maximal inhibition in series [1] (IC50).

As to `Cc1cc(N[C@@H]2CCCN(C(C)C)C2)nnc1-c1ccc2sccc2c1O` [Compound 39], in series [3], the half-life is 2.19 h, the clearance is 15.3 mL/min/kg, the Vd was 2.63 L/kg and the AUC(0-t) stood at 4.53 µM·h. In series [3], the bioavailability turned out to be 85.1% and the Cmax came to 573 nM. Also, the IC50 in series [1] was found to be 0.09 nM. Take `Cc1cc(N[C@@H]2CCCN(C3CCOC3)C2)nnc1-c1ccc(C2CC2)cc1O` (stereo partly shown) [Compound 30]: in series [1], half-maximal inhibition (IC50) was put at 3.39 nM.

Compound `Cc1cc2c(O)c(-c3nnc(N[C@H]4COC[C@@H]4O)cc3C)ccc2s1` [Hydrochloride of compound 66] registered an IC50 in series [1] of 8.18 nM. The same measure, in the same setting: the result for `Cc1cc(NC2CCCN(C3CC(O)C3)C2)nnc1-c1ccc2sccc2c1O` (stereo not shown) [Compound 50] reads 1.94 nM. On to `Cc1cc(N[C@@H]2CCCN(C)C2)nnc1-c1ccc2sc(F)cc2c1O` [Hydrochloride of compound 44a], for which the IC50 in series [1] amounted to 0.076 nM. Against the preceding compound, the IC50 is about 26-fold lower. On the same count and under the same terms, the result for `Cc1cc(N[C@@H]2CCCN(C3CCOCC3)C2)nnc1-c1ccc(C2CC2)cc1O` [Compound 31] reads 2.09 nM; that for `Cc1cc(N[C@@H]2CCCN(C)C2)nnc1-c1ccc2ccsc2c1O` [Formate of compound 45], 0.078 nM. On to `Cc1cc(N[C@@H]2CCCN(C3CCOCC3)C2)nnc1-c1ccc2sccc2c1O` [Formate of compound 46], for which half-maximal inhibition in series [1] (IC50) required 0.289 nM.

With `Cc1cc(Nc2cccnc2)nnc1-c1ccc2sccc2c1O` [Hydrochloride of compound 65], the IC50 in series [1] was 6.07 nM. This IC50 lies about 21-fold higher than the previous one. Same read-out and setting: the result for `Cc1cc(N[C@@H]2CCCN(C(=O)CCN(C)C)C2)nnc1-c1ccc2sccc2c1O` [Compound 51] reads 0.142 nM. Same read-out and setting: the result for `Cc1cc(N[C@@H]2CCCN(CC3CC3)C2)nnc1-c1ccc2sccc2c1O` [Compound 40] reads 0.19 nM; that for `Cc1cc(N[C@@H]2CCCN(C)C2)nnc1-c1ccc2c(c1O)CCC2` [Compound 2], 0.24 nM; that for `COC1CC(N2CCC[C@@H](Nc3cc(C)c(-c4ccc5sccc5c4O)nn3)C2)C1` (stereo partly shown) [Compound 49], 0.882 nM.

On to `Cc1cc(N[C@@H]2CCCN(CC(N)=O)C2)nnc1-c1ccc2c(c1O)CCC2` [Compound 12b], for which the IC50 in series [1] amounted to 3.13 nM.

In series [1], `Cc1cc(N[C@@H]2CCCN(C3COC3)C2)nnc1-c1ccc2ccccc2c1O` [Compound 28] came in with an IC50 of 18.7 nM.
